Experiments:
melanoma cells = assay: Cell wounding / wound healing; assay type: cell-based, mouse; conditions: 2% methyl sulfone
Protocol: Cells were cultured to approximately 90% confluence in 35 mm tissue culture plates. Methyl sulfone (2%) was added to half the plates and 48 hours later cells were wounded with a sterile plastic 1000 μl pipette tip. Cells were washed two times with medium to remove cell debris and incubated at 37° C. over night in RMPI medium +/−2% methyl sulfone. After 72 hours, wound edges were photographed and recorded with a Nikon TE300 inverted microscope (Nikon) equipped with a 10×0.25 NA Plan Achromat objective lens. Time-series (5 min long) of phase contrast images were acquired at a video rate (1 frame/3s) with a Watec-902B CCD video camera (Watec Corp., Japan) via stream acquisition option of Metamorph image acquisition and analysis software (Universal Imaging Corp., Downington, Pa.). During the recordings, cells were kept at 37° C. and 10 mM Hepes. Time series and photographs of cells +/−2% methyl sulfone were obtained every 24 hours for up to 120 hrs.
We tested whether melanoma cells treated with 2% methyl sulfone would function properly in the process of wound healing. As described in herein, control melanoma cells and cells treated with 2% methyl sulfone were grown to confluence. Scraping a layer of confluent cells with a plastic pipette tip formed wounds. Live cell video microscopy was used to monitor migration of cells into the wound.

[1] = tested on: Mouse breast cancer cells (66Cl-1); assay: Effects of methyl sulfone on estrogen receptor-negative breast cancer cells; assay type: cell-based
Protocol: Cloudman S-91 mouse melanoma cells (sub-clone M-3, CCL 53.1; American Type Culture Collection, Rockville, Md.) were grown in RMPI medium supplemented with 10% fetal bovine serum (Invitrogen, Inc) and 5% penicillin-streptomycin (Invitrogen, Inc). Mouse breast cancer cells (66Cl-1; American Type Culture Collection, Rockville, Md.) that are estrogen-receptor negative were grown in DMEM medium supplemented with 10% fetal bovine serum (Invitrogen, Inc) and 5% penicillin/streptomycin (Invitrogen, Inc). Human T-cell leukemic lymphocytes (CEM; American Type Culture Collection, Rockville, Md.) were grown in MEM medium supplemented with 7% fetal calf serum. Cultures were passaged twice a week. […]
Cells were plated onto sterile 12 mm coverslips in 35 mm tissue culture plates and incubated at 37° C., 5% CO2. After 24 hours, 2% methyl sulfone in medium or medium alone was added the plates and incubated at 37° C., 5% CO2 for 48 and 72 hrs. BrdU (Molecular Probes, Eugene, Oreg., USA; diluted ⅓ in RPMI medium) was added to each plate for 60 minutes at 37° C., 5% CO2. Coverslips were transferred to porcelain holders, washed with PBS, fixed in methanol/acetone (1:1), washed with PBS, and incubated in 5% BSA/PBS for 30 minutes at room temperature. To denature DNA, coverslips were placed in 0.1N HCL/1% Triton X-100 for 10 minutes at room temperature. After washing in PBS, cells were incubated with Alexa Fluor 488 anti-BrdU antibody (Molecular Probes, Eugene, Oreg.; diluted 1/20 in 5% BSA/PBS) for 60 minutes at room temperature. Cells were washed in PBS and incubated with Hoechst (diluted 1/1000 in PBS) in the dark at room temperature. After washing in PBS, cells were dipped in dH2O and drained onto Kim Wipes. SlowFade mounting medium (Molecular Probes, Eugene, Oreg.) was added to a glass slide and coverslips were placed face down onto slides and sealed with clear nail polish. Cells were viewed at the Center for Cell Analysis and Modeling, University of Connecticut Health Center, Farmington, Conn., with an Axioplan CCD Microscope equipped with a 40×1.3 NA FL objective lens, equipped with a Photometrics PXL-EEV37 high speed digital cooled CCD camera. Molecular Devices Metamorph was used for image acquisition.
Cells were plated on 8-35 mm plates that contained base agar with and without 2% methyl sulfone. To make base agar, 1% agar (DNA grade; Difco Bacto Agar; Becton Dickenson and Company, Sparks, Md.), was mixed in water at room temperature, melted in a microwave, and cooled to 40° C. before using. For drug plates, 1% agar was combined (1:1) with 4% methyl sulfone in 2×RPMI medium with sodium bicarbonate supplemented with 10% FBS and 5% penicillin/streptomycin. For control plates, 1% agar was combined (1:1) with 2×RMPI medium. Agar +/−2% methyl sulfone was added to appropriate 35 mm tissue culture plates and stored overnight at 4° C. The next day top agar and cells were placed on top of the base agar. Top agar was made with 0.66% agar in water. The agar was melted in a microwave, cooled, and stored at 40° C. 2×RPMI medium and 4% methyl sulfone was also stored at 40° C. Cells were trypsinized and counted for a final concentration of 5×10^3 cells/plate. Cell counts were adjusted to 2×10^5 cells/ml and 0.05 ml of the cell suspension was added to 15 ml centrifuge tubes (2 each). Base agar plates were removed from 4° C. and allowed to warm to room temperature for approximately 30 minutes prior to plating. For plating control cells, 2×RPMI medium and 0.66% agar were added to the tube of cell suspension, gently mixed, and placed on top of control base agar plates. For plating cells in 2% methyl sulfone, 4% methyl sulfone (in 2×RMPI medium) and 0.66% agar was added to the tube of cell suspension, mixed gently, and placed on top of the drug base agar plates. Cells were incubated in the 37° C., 5% CO2 incubator for 10-14 days. Plates were stained with 0.005% crystal violet for 1 hour. Colonies were photographed and counted with a dissecting microscope. […]

**Q.** Which results are given for methyl sulfone?
**A.** behaviour when the wound was covered (melanoma cells): stopped migrating and once again became contact inhibited; rate of migration into the wound area (melanoma cells): slower rate than control cells; DNA synthesis ([1]; 2% methyl sulfone): markedly reduced; cell growth anchorage dependence ([1]; 2% methyl sulfone): anchorage-dependent; contact inhibition ([1]; 2% methyl sulfone): contact inhibited; migration of cells through an extracellular matrix ([1]; 2% methyl sulfone): inhibited; mitochondrial activity ([1]; 2% methyl sulfone): decreased; senescence ([1]; 2% methyl sulfone): became senescent; wound healing ([1]; 2% methyl sulfone): proceeded normally; methyl sulfone concentration inducing apoptosis in breast cancer cells ([1]; breast cancer cells): above 2%
